The target in one test is T1, ORL1 receptor (Homo sapiens, UniProt P41146).
T1 construct: expressed in transfected cells; host or cells: CHO (recombinant CHO-ORL1 cells), membranes
As to the kind of experiment: ORL1 receptor binding assay with 3H-nociceptin/orphanin FQ (WGA-SPA beads). Particulars: c=1 μM test substance; 0.5 nM 3H-nociceptin/orphanin FQ; membranes of recombinant CHO-ORL1 cells. The method, then:
Measurement of ORL1 Binding
The cyclohexane derivatives having the general formula I were investigated in a receptor binding assay with ^3H-nociceptin/orphanin FQ with membranes of recombinant CHO—ORL1 cells. This test system was conducted in accordance with the method described by Ardati et al. (Mol. Pharmacol., 51, 1997, p. 816-824). The concentration of ^3H-nociceptin/orphanin FQ in these tests was 0.5 nM. The binding assays were carried out with 20 μg amounts of membrane protein per 200 μl batch in 50 mM Hepes, pH 7.4, 10 mM MgCl2 and 1 mM EDTA. The binding to the ORL1 receptor was determined using 1 mg amounts of WGA-SPA beads (Amersham-Pharmacia, Freiburg, Germany), by incubation of the batch for one hour at room temperature and subsequent measurement in a Trilux scintillation counter (Wallac, Finland). The affinity is given in Table 1 as the nanomolar Ki value or in % inhibition at c=1 μM.

The next test deals with T2, human μ-opiate receptor (Homo sapiens, UniProt P35372).
T2 construct: purchased NEN, Zaventem, Belgium RB-HOM; host or cells: CHO-K1 cells (membrane preparation)
In words: μ-opiate receptor binding assay with [3H] naloxone (WGA-SPA beads). Particulars: 1 μmol/l test substance; 1 nmol/l [3H] naloxone; CHO-K1 cell membranes expressing human μ-opiate receptor. The method, then:
The receptor affinity to the human μ-opiate receptor was determined in a homogeneous batch in microtitre plates. To this end, dilution series of the substituted indole derivative to be tested were incubated for 90 minutes at room temperature with a receptor membrane preparation (15-40 μg protein per 250 μl incubation batch) of CHO-K1 cells, which express the human μ-opiate receptor (RB—HOM receptor membrane preparation from NEN, Zaventem, Belgium), in the presence of 1 nmol/l of the radioactive ligand [^3H] naloxone (NET719, NEN, Zaventem, Belgium) and 1 mg of WGA-SPA beads (wheat germ agglutinin SPA beads from Amersham/Pharmacia, Freiburg, Germany) in a total volume of 250 μl. 50 mmol/l tris-HCl supplemented with 0.05 wt. % sodium azide and 0.06 wt. % bovine serum albumin were used as the incubation buffer. In order to determine the non-specific binding, 25 μmol/l of naloxone were also added. At the end of the ninety-minute incubation period the microtitre plates were centrifuged for 20 minutes at 1000 g and the radioactivity was measured in a β counter (Microbeta-Trilux, PerkinElmer Wallac, Freiburg, Germany). The percentage displacement of the radioactive ligand from its binding to the human μ-opiate receptor was determined at a test substance concentration of 1 μmol/l and stated as the percentage inhibition (% inhibition) of the specific binding. In some cases the percentage displacement due to differing concentrations of the compounds having the general formula I to be tested was used to calculate the IC50 inhibition concentrations which bring about a 50-percent displacement of the radioactive ligand. Ki values for the test substances were obtained by extrapolation using the Cheng-Prusoff equation.

This is an account of results in patent US9206156B2, “Substituted indole derivatives” (GRÜNENTHAL GMBH, priority 2008, dated 2015).

T1 sequence (P41146 whole entry): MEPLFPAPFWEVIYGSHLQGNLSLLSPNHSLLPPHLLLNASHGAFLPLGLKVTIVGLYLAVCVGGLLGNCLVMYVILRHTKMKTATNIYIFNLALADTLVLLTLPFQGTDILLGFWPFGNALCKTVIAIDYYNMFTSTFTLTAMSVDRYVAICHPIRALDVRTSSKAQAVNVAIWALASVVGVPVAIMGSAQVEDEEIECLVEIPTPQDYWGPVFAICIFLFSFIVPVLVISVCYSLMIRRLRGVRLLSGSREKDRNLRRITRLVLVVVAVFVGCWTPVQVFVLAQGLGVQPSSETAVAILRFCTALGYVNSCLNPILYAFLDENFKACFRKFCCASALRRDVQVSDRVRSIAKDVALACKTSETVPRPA
T2 sequence (P35372 whole entry): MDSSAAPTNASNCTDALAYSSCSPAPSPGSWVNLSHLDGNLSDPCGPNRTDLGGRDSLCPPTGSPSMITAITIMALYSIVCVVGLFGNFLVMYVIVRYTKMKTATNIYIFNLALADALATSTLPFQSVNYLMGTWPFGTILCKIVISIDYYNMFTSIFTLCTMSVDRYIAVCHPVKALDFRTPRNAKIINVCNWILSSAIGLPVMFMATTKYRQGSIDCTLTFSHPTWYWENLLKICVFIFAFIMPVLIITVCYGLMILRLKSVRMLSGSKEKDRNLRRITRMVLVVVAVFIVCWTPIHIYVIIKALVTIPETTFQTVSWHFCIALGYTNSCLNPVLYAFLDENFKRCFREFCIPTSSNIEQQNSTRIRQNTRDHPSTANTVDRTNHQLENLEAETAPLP

As a reminder, the inhibition is how much of the control response was suppressed. Regarding `CN(CCCN1CCC(c2ccccc2)(N(C)C)CC1)C(=O)C1CCCc2c1[nH]c1ccc(Cl)cc21` (stereo not shown) [Example 35, 6-Chloro-N-(3-(4-(dimethylamino)-4-phenylpiperidin-1-yl)propyl)-N-methyl-2,3,4,9-tetrahydro-1H-carbazole-1-carboxamide], the inhibition at 1 µM stood at 79% at ORL1 receptor and 57% on human μ-opiate receptor.

For the compound `CN(CCN1CCC(c2ccccc2)(N2CCCC2)CC1)C(=O)Cc1c[nH]c2cc(F)ccc12` [Example 36, 2-(6-Fluoro-1H-indol-3-yl)-N-methyl-N-(2-(4-phenyl-4-(pyrrolidin-1-yl)piperidin-1-yl)ethyl)acetamide], the results for the inhibition at 1 µM at ORL1 receptor and on human μ-opiate receptor were 31% and 62%, respectively.

With `CN(CCN1CCC(c2ccccc2)(N2CCCC2)CC1)C(=O)c1ccc2ccn(C)c2c1` [Example 37, N,1-Dimethyl-N-(2-(4-phenyl-4-(pyrrolidin-1-yl)piperidin-1-yl)ethyl)-1H-indole-6-carboxamide], the inhibition at 1 µM on ORL1 receptor worked out at 16%; at human μ-opiate receptor, 47%.

Take `CN(CCCN1CCC(c2ccccc2)(N(C)C)CC1)C(=O)c1ccc2ccn(C)c2c1` [Example 39, N-(3-(4-(Dimethylamino)-4-phenylpiperidin-1-yl)propyl)-N,1-dimethyl-1H-indole-6-carboxamide]: the results for the inhibition at 1 µM on ORL1 receptor and at human μ-opiate receptor were 32% and 76%, respectively.

In the case of `CCCCC1(N(C)C)CCN(CCN(C)C(=O)c2cccc3c2ccn3C)CC1` [Example 41, N-(2-(4-Butyl-4-(dimethylamino)piperidin-1-yl)ethyl)-N,1-dimethyl-1H-indole-4-carboxamide], the inhibition at 1 µM worked out at 17% at ORL1 receptor and 63% on human μ-opiate receptor.

On to `CN(CCN1CCC(c2ccccc2)(N2CCCC2)CC1)C(=O)C1CCCc2c1[nH]c1ccc(Cl)cc21` (stereo not shown) [Example 42, 6-Chloro-N-methyl-N-(2-(4-phenyl-4-(pyrrolidin-1-yl)piperidin-1-yl)ethyl)-2,3,4,9-tetrahydro-1H-carbazole-1-carboxamide], for which the results for the inhibition at 1 µM on ORL1 receptor and at human μ-opiate receptor were 22% and 28%, respectively.

With `CCCCC1(N(C)C)CCN(CCN(C)C(=O)C2CCCc3c2[nH]c2ccc(Cl)cc32)CC1` (stereo not shown) [Example 43, N-(2-(4-Butyl-4-(dimethylamino)piperidin-1-yl)ethyl)-6-chloro-N-methyl-2,3,4,9-tetrahydro-1H-carbazole-1-carboxamide], the values for the inhibition at 1 µM at ORL1 receptor and at human μ-opiate receptor were 21% and 54%, respectively.

Turning to `CCCCC1(N(C)C)CCN(CCN(C)C(=O)Cc2c[nH]c3cc(F)ccc23)CC1` [Example 44, N-(2-(4-Butyl-4-(dimethylamino)piperidin-1-yl)ethyl)-2-(6-fluoro-1H-indol-3-yl)-N-methylacetamide], the “% Inhibition (ORL1) at 1 μM” value at ORL1 receptor is 50%. Further, on human μ-opiate receptor, the “% Inhibition (μ) at 1 μM” value came to 92%.

In the case of `CN(CCCN1CCC(c2ccccc2)(N(C)C)CC1)C(=O)Cc1c[nH]c2cc(F)ccc12` [Example 45, N-(3-(4-(Dimethylamino)-4-phenylpiperidin-1-yl)propyl)-2-(6-fluoro-1H-indol-3-yl)-N-methylacetamide], the inhibition at 1 µM on ORL1 receptor was determined as 49%; at human μ-opiate receptor it was 82%.

For `CCCCC1(N(C)C)CCN(CCN(C)C(=O)CCc2cn(C)c3ccccc23)CC1` [Example 49, N-(2-(4-Butyl-4-(dimethylamino)piperidin-1-yl)ethyl)-N-methyl-3-(1-methyl-1H-indol-3-yl)propanamide], the inhibition at 1 µM was 17% on ORL1 receptor and 52% at human μ-opiate receptor.

Turning to `CN(CCCN1CCC(c2ccccc2)(N(C)C)CC1)C(=O)CCc1cn(C)c2ccccc12` [Example 50, N-(3-(4-(Dimethylamino)-4-phenylpiperidin-1-yl)propyl)-N-methyl-3-(1-methyl-1H-indol-3-yl)propanamide], the values for the inhibition at 1 µM on ORL1 receptor and on human μ-opiate receptor were 39% and 79%, respectively.
